In article PMC9177418, “Global analysis of biosynthetic gene clusters reveals conserved and unique natural products in entomopathogenic nematode-symbiotic bacteria” (Nature Chemistry, 2022) one finds IC50 data, which are given here for 1 compound.

Common to all, as to format: biochemical
The target of experiment [1] is T1, yeast 20S proteasome β5 subunit (chymotrypsin-like) (Saccharomyces cerevisiae, UniProt P30656).
T1 construct: gene PRE2; purified yeast 20S proteasome core particle (yCP); with other subunits of the yeast 20S proteasome core particle (α1–7β1–7β1–7α1–7)
T1 sequence (P30656 76-287): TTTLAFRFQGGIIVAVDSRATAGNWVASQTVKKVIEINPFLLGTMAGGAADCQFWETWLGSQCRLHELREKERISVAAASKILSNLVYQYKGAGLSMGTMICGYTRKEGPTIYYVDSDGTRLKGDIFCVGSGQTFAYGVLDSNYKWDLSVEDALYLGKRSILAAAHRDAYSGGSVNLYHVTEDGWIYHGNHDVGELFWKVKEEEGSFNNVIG
Put plainly: X-ray crystal structure at […] Å; fluorogenic Suc-Leu-Leu-Val-Tyr-AMC inhibition assay with purified yCP.

The target of experiment [2] is T2, yeast 20S proteasome β1 subunit (caspase-like) (Saccharomyces cerevisiae, UniProt P38624).
T2 construct: gene PRE3; purified yeast 20S proteasome core particle (yCP); with other subunits of the yeast 20S proteasome core particle (α1–7β1–7β1–7α1–7)
T2 sequence (P38624 20-215): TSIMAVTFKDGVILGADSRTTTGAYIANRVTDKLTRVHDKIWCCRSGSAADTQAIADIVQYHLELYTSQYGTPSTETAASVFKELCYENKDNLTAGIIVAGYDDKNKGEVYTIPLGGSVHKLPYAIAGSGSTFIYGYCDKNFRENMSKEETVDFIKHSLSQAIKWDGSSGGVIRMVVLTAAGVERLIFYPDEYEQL
Description: X-ray crystal structure ([…] soak; ligand map diffuse at β[…]); fluorogenic inhibition assay with purified yCP.

The target of experiment [3] is T3, yeast 20S proteasome β2 subunit (trypsin-like) (Saccharomyces cerevisiae, UniProt P25043).
T3 construct: gene PUP1; purified yeast 20S proteasome core particle (yCP); with other subunits of the yeast 20S proteasome core particle (α1–7β1–7β1–7α1–7)
T3 sequence (P25043 30-261): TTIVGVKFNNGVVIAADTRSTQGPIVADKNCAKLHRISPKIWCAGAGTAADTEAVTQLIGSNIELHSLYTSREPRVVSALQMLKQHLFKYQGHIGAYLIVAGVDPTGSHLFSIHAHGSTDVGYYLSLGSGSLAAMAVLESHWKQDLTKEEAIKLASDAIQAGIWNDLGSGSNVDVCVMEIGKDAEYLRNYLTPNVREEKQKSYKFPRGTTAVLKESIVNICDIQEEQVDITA
The experiment is described as above.

For `CC(C)[C@@H]1C(=O)O[C@H]1C(=O)O` [compound 1, 3-isopropyl-4-oxo-2-oxetanecarboxylic acid], the figures for the half-inhibitory concentration (IC50) in experiment [1], in experiment [2] and in experiment [3] were 6.2 µM, 625 µM and 60 µM, respectively.
